Experiment [1] has as its system hepatic markers (ALB, AFP, HNF4α, SLC10A1, ASGR1). Kind of experiment: Hepatic marker expression (real-time qPCR, immunofluorescence). It is filed as cell-based, human. The following applies: 2 μg/mL, 24 hours. As for the experimental part: C. Human iPSC-derived hepatocytes were treated with 2 μg/mL of DL-1 for 24 hours. (A) mRNA level of hepatic markers (ALB, AFP, HNF4α, SLC10A1, ASGR1) were determined via real-time qPCR. (B) Cells were fixed and immunofluorescence was performed to determine HNF4 and ALB level. […] Data are shown as mean SEM of […] (n=4).
For hepatic marker expression analysis, human iPSC-derived hepatocytes (Day 20) were treated with 2 μg/mL of DL-1 for 24 hours. Cells were fixed in 4% paraformaldehyde (PFA) and penetrated with 0.1% Triton-X-100. Cells were incubated with primary antibodies (ALB, 1:1000, Dako; HNF4-a, 1:1000, Santa Cruz) overnight at 4 degrees and then switched to secondary antibodies (Alexa Flour 488 goat anti-rabbit, 1:1000, Invitrogen; Alexa Flour 594 rabbit anti-mouse, 1:2000, Invitrogen). Images were taken using Bio-Rad Zoe™ Fluorescent Cell Imager (Bio-Rad). For intracellular APOB localization, iPSC-heps were treated with 0, 3, 12, 48 μg/mL of DL-9 for 24 hours, and cells were fixed in 4% PFA followed by 0.1% Triton-X-100 penetration. […] Integrated fluorescent intensity was normalized by total cell counts, which is determined by DAPI staining.
Human iPSC-derived hepatocytes (Day 20) were treated with 2 μg/mL of DL-1 for 24 hours. […] Quantitative real-time PCR was performed on a BioRad CFX384 real-time PCR machine.
On the technique in general: Quantitative PCR measures a nucleic acid by following its amplification.

A further experiment has as its system APOA. Description: Secreted APOA ELISA in iPSC-derived hepatocytes. The following applies: 2 μg/mL, 8 to 48 hours. It is filed as cell-based, human. As for the experimental part:
E. Human iPSC-derived hepatocytes were treated with 2 μg/mL of DL-1 from 8 to 48 hours. Albumin, APOPA, and APOB level in the culture medium were determined via ELISA. All secreted proteins were compared to non-treated cells. In FIG. 5, accumulated APOB in the medium from different time-point was measured and normalized to albumin level. In FIG. 6, APOA, APOB, and albumin in the medium at the indicated times were compared to control. […] Data are shown as mean±SEM of four replicates (n=4); *p<0.05, **p<0.01.
Human APOB level was determined via a commercial sandwich ELISA (3715-1H-6; Mabtech), and the signal was detected using the HRP-TMB system. The concentration of APOB was determined using a standard curve with four parameters logistic regression model. Human APOA level was determined via a commercial sandwich ELISA (3710-1H-6; Mabtech) following manufacture instruction. Human albumin levels in cell culture supernatants were measured by commercial ELISA (E88-129; Bethyl Laboratories) following manufactural instructions.
(In general: In an ELISA, binding on a coated surface is turned into a signal by an enzyme label.)

For a further experiment, the system named is Intracellular APOB. Description: Intracellular APOB accumulation (LDL uptake, pulse-chase, immunofluorescence). The conditions noted are these: human iPSC-derived hepatocytes. It is filed as cell-based. As for the experimental part:
C. Human iPSC-derived hepatocytes (iPSC-Heps) were treated with 2 μg/mL of DL-1 or equivalent concentration of DMSO for 24 hours. In FIG. 7A, APOB mRNA level was determined using real-time qPCR. In FIG. 7B Intracellular APOB, LDLR, and HSP90 protein levels were determined via immunoblot; Quantification of biological replicates of immunoblots. Data are shown as mean±SD of four replicates (n=4). In FIG. 12A LDL uptake assay was performed by pre-treating cells with 2 μg/mL of DL-1, 20 μM of Atorvastatin, and equivalent concentration of DMSO for 24 hours followed by 4 hours of pHrodo-LDL exposure; LDL endocytosis was determined and quantified by fluorescence image; data are shown as mean±SD of triplicates (n=3). In FIG. 12B, iPSC-Heps were pre-treated with 3, 12, and 48 μg/mL of DL-9 for 2 hours, and cells were pulse-labeled with [^35S]methionine for 10 minutes and chased for 120 mins with or without DL-9 treatment; intracellular ^35S-APOB were determined by immunoprecipitation using anti-APOB antibody; band density was quantified and normalized with 5% of input (n=3). […]
Immunoprecipitation of cell lysates was performed using protein G magnet beads (ThermoFisher) and anti-APOB (LDL20/17, Mabtech) antibodies. […] Expression levels were quantified via integrated intensity normalized by 5% of input of each sample. […] Signals were detected using HRP-conjugated secondary antibodies. […]

Molecules are shown by their SMILES.

For `Sc1nc(S)nc(Nc2ccc(Nc3ccccc3)cc2)n1` (racemic) [DL-1, 6-{[4-(phenylamino)phenyl]amino}-1,3,5-triazine-2,4-dithiol], in experiment [1], the “hepatic character (hepatic marker mRNA, HNF4 and ALB immunofluorescence)” value is “no impact on hepatic characters”. In addition, the “APOA level in culture medium, time course” value with APOA is “without affecting albumin and APOA level”. Moreover, in the experiment with Intracellular APOB, the “intracellular APOB accumulation” value was “induced intracellular APOB accumulation independently of mRNA expression and LDL uptake”.

The values above are taken from patent US20230101743A1, “SUBSTITUTED TRIAZINE COMPOUNDS AND USES THEREOF” (MUSC FOUNDATION FOR RESEARCH DEVELOPMENT, priority 2020, published 2023).
